The results in this text go back to patent US7241791B2, “Substituted 4-(indazol-3-yl)phenols” (Wyeth, priority 2002, dated 2007).

Structures are written as SMILES. pEC50, pIC50: −log10 of the molar value.

For experiment [1], the target named is T1, human ERα (Homo sapiens, UniProt P03372).
T1 sequence (P03372 1-595): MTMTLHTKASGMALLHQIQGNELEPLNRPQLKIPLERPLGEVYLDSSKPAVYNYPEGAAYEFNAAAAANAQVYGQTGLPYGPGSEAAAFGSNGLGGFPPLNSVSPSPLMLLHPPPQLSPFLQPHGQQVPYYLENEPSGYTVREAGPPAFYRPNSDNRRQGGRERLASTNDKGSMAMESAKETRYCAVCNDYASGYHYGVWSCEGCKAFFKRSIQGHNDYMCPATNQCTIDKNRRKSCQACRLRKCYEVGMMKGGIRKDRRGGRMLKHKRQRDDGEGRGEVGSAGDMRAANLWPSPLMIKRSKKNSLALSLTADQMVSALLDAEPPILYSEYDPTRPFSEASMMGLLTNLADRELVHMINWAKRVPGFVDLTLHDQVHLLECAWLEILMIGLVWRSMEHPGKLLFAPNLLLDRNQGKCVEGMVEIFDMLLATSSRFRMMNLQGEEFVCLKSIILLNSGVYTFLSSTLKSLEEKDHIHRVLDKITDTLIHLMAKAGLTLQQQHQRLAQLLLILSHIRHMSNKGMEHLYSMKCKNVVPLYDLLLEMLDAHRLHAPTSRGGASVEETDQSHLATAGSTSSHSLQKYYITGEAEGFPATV
The experiment in a line: NF-κB luciferase reporter (ER/NF-KB-luc) in Ad5-wt-hERα infected HAECT-1 cells. The following applies: for pIC50: ER/NF-KB-luc IC50, Ad5-wt-ER infected HAECT-1 cells, IL-1β; for Emax: HAECT1, read-out: ER/NF-KB-luc % E2, efficacy relative to the maximal inhibition observed with E2.

The target of experiment [2] is T1, human ERα. Briefly: Creatine kinase expression (ER/CK) in Ad5-wt-hERα infected HAECT-1 cells. As to conditions: for ER/CK % E2: efficacy relative to the maximal stimulation observed with E2.
The target in experiment [3] is T1, human ERα. The experiment in a line: IL-6 expression (ELISA, ER/IL-6) in Ad5-wt-hERα infected HAECT-1 cells. As to conditions: for ER/IL-6 % E2: efficacy relative to the maximal inhibition observed with E2. Background: In an ELISA, binding on a coated surface is turned into a signal by an enzyme label.

In the case of `COc1ccccc1-n1nc(-c2ccc(O)cc2O)c2ccc(O)cc21` [Example 12, 4-[6-hydroxy-1-(2-methoxyphenyl)-1H-indazol-3-yl]benzene-1,3-diol], at human ERα [1], the pIC50 is 6.68 and the Emax is 61%. Moreover, on human ERα [2], the pEC50 is 5.92 and the “ER/CK % E2” value was 58 % E2. Besides, on human ERα [3], the pIC50 is 5.12 and the “ER/IL-6 % E2” value was determined as 73 % E2.
With `Oc1ccc(-c2nn(-c3ccc(OC(F)(F)F)cc3)c3cc(O)ccc23)c(O)c1` [Example 13, 4-{6-hydroxy-1-[4-(trifluoromethoxy)phenyl]-1H-indazol-3-yl}benzene-1,3-diol], at human ERα [1], the pIC50 was 6.88 and the Emax turned out to be 97%. In addition, on human ERα [2], the negative logarithm of the EC50 (pEC50) is 6.08 and the “ER/CK % E2” value was found to be 47 % E2. Besides, at human ERα [3], the pIC50 was 6.22 and the “ER/IL-6 % E2” value was 83 % E2.
`Oc1ccc(-c2nn(-c3ccccc3Cl)c3cc(O)ccc23)c(O)c1` [Example 16, 4-[1-(2-chlorophenyl)-6-hydroxy-1H-indazol-3-yl]benzene-1,3-diol]: on human ERα [1], the pIC50 was 7.02 and the Emax was 79%. In addition, on human ERα [2], the pEC50 was 6.36 and the “ER/CK % E2” value amounted to 45 % E2. Besides, on human ERα [3], the pIC50 was 7.09 and the “ER/IL-6 % E2” value stood at 58 % E2.
For the compound `Cn1nc(-c2ccc(O)cc2)c2cccc(Cl)c21` [Example 126, 4-(7-chloro-1-methyl-1H-indazol-3-yl)phenol], at human ERα [1], the pIC50 was 6.87 and the Emax came out at 85%. For the same compound, on human ERα [2], the pEC50 was 6.41 and the “ER/CK % E2” value was 52 % E2. Besides, on human ERα [3], the pIC50 was 6.91 and the “ER/IL-6 % E2” value came out at 52 % E2.
As for `Oc1ccc(-c2n[nH]c3cc(Cl)c(F)cc23)cc1` [Example 131, 4-(6-chloro-5-fluoro-1H-indazol-3-yl)phenol], on human ERα [1], the pIC50 was 6.71 and the Emax was found to be 82%. At human ERα [2], the pEC50 was 6.09 and the “ER/CK % E2” value amounted to 65 % E2. For the same compound, on human ERα [3], the negative-log IC50 (pIC50) was 6.42 and the “ER/IL-6 % E2” value stood at 72 % E2.
For the compound `CCCCn1nc(-c2ccc(O)cc2)c2ccccc21` [Example 139, 4-(1-butyl-1H-indazol-3-yl)phenol], at human ERα [1], the pIC50 is 6.74 and the Emax turned out to be 67%. Moreover, on human ERα [2], the pEC50 is 6.14 and the “ER/CK % E2” value amounted to 36 % E2. Besides, at human ERα [3], the pIC50 is 6.48 and the “ER/IL-6 % E2” value is on record as 40 % E2.
As for `Oc1ccc(-c2nn(Cc3ccccc3)c3c(F)cccc23)cc1` [Example 145, 4-(1-benzyl-7-fluoro-1H-indazol-3-yl)phenol], at human ERα [1], the pIC50 was 6.90 and the Emax was 66%. Moreover, on human ERα [2], the pEC50 is 6.36 and the “ER/CK % E2” value was found to be 48 % E2. At human ERα [3], the pIC50 is 7.01 and the “ER/IL-6 % E2” value was 60 % E2.
Consider `Oc1ccc(-c2nn(Cc3ccccc3)c3c(Cl)cccc23)c(O)c1` [Example 149, 4-(1-benzyl-7-chloro-1H-indazol-3-yl)benzene-1,3-diol], for which, at human ERα [1], the pIC50 was 6.50 and the Emax came to 67%. Moreover, on human ERα [2], the pEC50 is 6.28 and the “ER/CK % E2” value amounted to 30 % E2. Moreover, on human ERα [3], the pIC50 is 6.94 and the “ER/IL-6 % E2” value was found to be 49 % E2.
Take `Cn1nc(-c2ccc(O)cc2)c2cccc(C(F)(F)F)c21` [Example 169, 4-[1-methyl-7-(trifluoromethyl)-1H-indazol-3-yl]phenol]: on human ERα [1], the pIC50 is 7.19 and the Emax turned out to be 69%. For the same compound, at human ERα [2], the pEC50 was 6.44 and the “ER/CK % E2” value is listed as 38 % E2. For the same compound, at human ERα [3], the pIC50 is 7.19 and the “ER/IL-6 % E2” value is 65 % E2.

The term pIC50 denotes the negative decadic logarithm of the IC50, by convention in mol/L. The term pEC50 denotes −log10 of the EC50, conventionally taken in molar units. A high value points to a low EC50.
